Structures are written as SMILES. Read-outs that look alike come from different tables or passages of the source.

The values below come from patent US20110105565A1, “WATER SOLUBLE SMALL MOLECULE INHIBITORS OF THE CYSTIC FIBROSIS TRANSMEMBRANE CONDUCTANCE REGULATOR” (THE REGENTS OF THE UNIVERSITY OF CALIFORNIA, priority 2008, published 2011).

For the assay, the target named is human wildtype CFTR (Homo sapiens, UniProt P13569). Description: Fluorescence cell-based assay of CFTR inhibition (YFP iodide influx, FRT cells). On the set-up: expressed in transfected cells; host or cells: Fisher rat thyroid (FRT) cells. Conditions: for CFTR inhibitory activity (in words): structure-activity discussion.
The mark [1] stands for this setting: Table 1, upper part, CFTR inhibitory activity, given as ranges, read-out: IC50.
Where [2] appears, read: Table 2 summary table, given as ranges, read-out: IC50.
The mark [3] stands for this setting: Tables 1 and 2, read-out: IC50 (CFTR inhibition).
Where [4] appears, read: Table 1, lower parts, given as ranges, read-out: IC50.

Sequence of human wildtype CFTR (P13569 whole entry): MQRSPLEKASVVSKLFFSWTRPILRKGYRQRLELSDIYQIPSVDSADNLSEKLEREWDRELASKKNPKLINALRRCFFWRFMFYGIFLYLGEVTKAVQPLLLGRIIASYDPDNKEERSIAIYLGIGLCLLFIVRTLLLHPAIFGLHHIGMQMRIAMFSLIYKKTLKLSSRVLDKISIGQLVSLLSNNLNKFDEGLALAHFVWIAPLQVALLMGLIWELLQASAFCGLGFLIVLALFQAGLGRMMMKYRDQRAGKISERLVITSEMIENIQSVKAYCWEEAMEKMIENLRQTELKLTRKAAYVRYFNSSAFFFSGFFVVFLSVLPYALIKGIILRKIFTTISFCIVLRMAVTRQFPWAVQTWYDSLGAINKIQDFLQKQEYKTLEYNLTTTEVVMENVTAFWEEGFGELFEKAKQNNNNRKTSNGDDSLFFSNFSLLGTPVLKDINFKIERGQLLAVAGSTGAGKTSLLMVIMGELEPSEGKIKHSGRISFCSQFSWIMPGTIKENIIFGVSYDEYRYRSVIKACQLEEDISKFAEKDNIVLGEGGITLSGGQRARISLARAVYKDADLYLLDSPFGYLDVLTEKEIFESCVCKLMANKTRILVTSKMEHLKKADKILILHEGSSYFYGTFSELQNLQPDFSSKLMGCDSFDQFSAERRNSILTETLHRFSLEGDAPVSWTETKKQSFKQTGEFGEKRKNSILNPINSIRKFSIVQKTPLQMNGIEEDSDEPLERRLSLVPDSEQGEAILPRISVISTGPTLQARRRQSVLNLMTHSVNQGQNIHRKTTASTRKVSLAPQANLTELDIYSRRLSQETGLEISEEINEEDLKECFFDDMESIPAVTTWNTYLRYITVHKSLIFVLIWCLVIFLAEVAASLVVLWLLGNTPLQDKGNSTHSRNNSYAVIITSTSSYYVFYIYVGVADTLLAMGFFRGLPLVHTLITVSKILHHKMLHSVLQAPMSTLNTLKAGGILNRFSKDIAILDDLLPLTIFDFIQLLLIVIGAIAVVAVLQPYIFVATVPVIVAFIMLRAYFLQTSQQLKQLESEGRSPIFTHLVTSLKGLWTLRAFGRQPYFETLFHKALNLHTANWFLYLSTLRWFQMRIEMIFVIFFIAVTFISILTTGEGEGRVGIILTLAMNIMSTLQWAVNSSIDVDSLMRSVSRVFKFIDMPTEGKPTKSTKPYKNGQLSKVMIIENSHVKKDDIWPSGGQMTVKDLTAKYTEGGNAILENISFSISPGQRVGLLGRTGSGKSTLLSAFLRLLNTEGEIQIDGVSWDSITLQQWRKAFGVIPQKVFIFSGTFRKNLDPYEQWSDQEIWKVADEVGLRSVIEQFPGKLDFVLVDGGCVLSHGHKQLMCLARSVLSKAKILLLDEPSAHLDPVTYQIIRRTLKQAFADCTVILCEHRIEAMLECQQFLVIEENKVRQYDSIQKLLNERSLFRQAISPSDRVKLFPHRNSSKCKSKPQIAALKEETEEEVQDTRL
Experimental: CFTR inhibition by thiazolidinone derivative compounds was determined by a fluorescence cell-based assay utilizing doubly transfected cells expressing human wild-type CFTR and a yellow fluorescent protein (YFP) iodide sensor, as described (see, e.g., Galietta, et al., J. Physiol. 281:C1734-C1742 (2001)). Fisher rat thyroid (FRT) cells stably expressing wild-type human CFTR and YFP-H148Q were cultured on 96-well black-wall plates as described (see, e.g., Ma, et al., J. Clin. Invest. 110:1651-1658 (2002)). Cells in 96-well plates were washed three times, and then CFTR was activated by incubation for 15 minutes with an activating cocktail containing 10 μM forskolin, 20 μM apigenin, and 100 μM IBMX. Test compounds were added 5 minutes before assay of iodide influx in which cells were exposed to a 100 mM inwardly directed iodide gradient. YFP fluorescence was recorded for 2 seconds before and 12 seconds after creation of the iodide gradient. Initial rates of iodide influx were computed from the time course of decreasing fluorescence after the iodide gradient.
CFTR-facilitated iodide influx following extracellular iodide addition results in quenching of cytoplasmic YFP fluorescence.

Usually IC50 stands for the concentration that gives 50% inhibition. Take `O=C(O)c1cc(/C=C2\SC(=S)N(c3cccc(C(F)(F)F)c3)C2=O)ccc1O` [Compound 7, (Z)-2-hydroxy-5-((4-oxo-2-thioxo-3-(3-(trifluoromethyl)phenyl)thiazolidin-5-ylidene)methyl)benzoic acid]: the IC50 lay in the range of 1 to 2 µM under setting [1] and 1 to 2 µM under setting [2].
For the compound `O=C(O)c1ccc(/C=C2\SC(=S)N(c3ccc(F)c(C(F)(F)F)c3)C2=O)cc1` [Compound 8, (Z)-4-((3-(4-fluoro-3-(trifluoromethyl)phenyl)-4-oxo-2-thioxothiazolidin-5 ylidene)methyl)benzoic acid], the IC50 by setting is: under setting [1], 1 to 2 µM; under setting [2], 1 to 2 µM.
`O=C(O)c1cccc(/C=C2\SC(=S)N(c3cccc(C(F)(F)F)c3)C2=O)c1` [Compound 9, (Z)-3-((4-oxo-2-thioxo-3-(3-(trifluoromethyl)phenyl)thiazolidin-5-ylidene)methyl)benzoic acid]: the IC50 runs as follows: under setting [1], 1 to 2 µM; under setting [2], 1 to 2 µM.
For `O=C(O)COc1ccc(/C=C2\SC(=S)N(c3cccc(C(F)(F)F)c3)C2=O)cc1` [Compound 10, (Z)-2-(4-((4-oxo-2-thioxo-3-(3-(trifluoromethyl)phenyl)thiazolidin-5-ylidene)methyl)phenoxy) acetic acid], the IC50 was 2 to 3 µM under setting [1], 2 to 3 µM under setting [2] and 2.6 µM under setting [3].
On to `O=C(O)c1cccc(/C=C2\SC(=S)N(c3ccc(F)c(C(F)(F)F)c3)C2=O)c1` [Compound 11, (Z)-3-((3-(4-fluoro-3-(trifluoromethyl)phenyl)-4-oxo-2-thioxothiazolidin-5-ylidene)methyl)benzoic acid], for which the IC50 was in the range of 5 to 10 µM under setting [1] and 5 to 10 µM under setting [2].
Consider `Cc1cccc(N2C(=O)/C(=C/c3ccc(C(=O)O)cc3)SC2=S)c1` [Compound 12, (Z)-4-((4-oxo-2-thioxo-3-m-tolylthiazolidin-5-ylidene)methyl)benzoic acid], for which the IC50 is, setting by setting: under setting [1], 5 to 10 µM; under setting [2], 5 to 10 µM.
As for `Cc1cccc(N2C(=O)/C(=C/c3ccc(C(=O)O)cc3)SC2=S)c1C` [Compound 13, (Z)-4-((3-(2,3-dimethylphenyl)-4-oxo-2-thioxothiazolidin-5-ylidene)methyl)benzoic acid], the IC50 by setting is: under setting [1], 5 to 10 µM; under setting [2], 5 to 10 µM.
Consider `O=C1/C(=C/c2cc(Br)c(O)c(Br)c2)SC(=S)N1c1cccc(C(F)(F)F)c1` [Compound 14, (Z)-5-(3,5-dibromo-4-hydroxybenzylidene)-2-thioxo-3-(3-(trifluoromethyl)phenyl) thiazolidin-4-one], for which the “CFTR inhibitory activity (in words)” value was “modest inhibition activity”. For the same compound, the IC50 under setting [1] was in the range of 5 to 10 µM. For the same compound, the IC50 under setting [2] fell in the range of 5 to 10 µM.
For the compound `O=C(O)c1ccc(/C=C2\SC(=S)N(c3cccc(C(F)(F)F)c3)C2=O)c(O)c1` [Compound 16, (Z)-3-hydroxy-4-((4-oxo-2-thioxo-3-(3-(trifluoromethyl)phenyl)thiazolidin-5-ylidene)methyl)benzoic acid], the IC50 was 7 to 9 µM under setting [1] and 7 to 9 µM under setting [2].
With `O=C1/C(=C/c2cc(O)c(O)c(O)c2)SC(=S)N1c1cccc(C(F)(F)F)c1` [Compound 19, (Z)-2-thioxo-3-(3-(trifluoromethyl)phenyl)-5-(3,4,5-trihydroxybenzylidene) thiazolidin-4-one], the “CFTR inhibitory activity (in words)” value is recorded as “low activity”. Also, the IC50 under setting [1] was in the range of 10 to 20 µM. The IC50 under setting [2] lay in the range of 10 to 20 µM.
In the case of `O=C(O)c1ccc(/C=C2\SC(=S)N(c3ccccc3C(F)(F)F)C2=O)cc1` [Compound 20, (Z)-4-((4-oxo-2-thioxo-3-(2-(trifluoromethyl)phenyl)thiazolidin-5-ylidene)methyl)benzoic acid], the IC50 runs as follows: under setting [1], 10 to 20 µM; under setting [2], 10 to 20 µM.
For `O=C(O)c1cccc(/C=C2\SC(=S)N(c3ccc(C(F)(F)F)cc3)C2=O)c1` [Compound 21, (Z)-3-((4-oxo-2-thioxo-3-(4-(trifluoromethyl)phenyl)thiazolidin-5-ylidene)methyl)benzoic acid], the IC50 reads like this: under setting [1], 10 to 20 µM; under setting [2], 10 to 20 µM.
On to `O=C(O)c1cc(/C=C2\SC(=S)N(c3ccccc3C(F)(F)F)C2=O)ccc1O` [Compound 22, (Z)-2-hydroxy-5-((4-oxo-2-thioxo-3-(2-(trifluoromethyl)phenyl)thiazolidin-5-ylidene)methyl)benzoic acid], for which the IC50 fell in the range of 10 to 20 µM under setting [1] and 10 to 20 µM under setting [2].
As for `O=C(O)c1ccc(/C=C2\SC(=S)N(c3cc(C(F)(F)F)cc(C(F)(F)F)c3)C2=O)cc1` [Compound 23, (Z)-4-((3-(3,5-bis(trifluoromethyl)phenyl)-4-oxo-2-thioxothiazolidin-5-ylidene)methyl)benzoic acid], the IC50 is, setting by setting: under setting [1], 10 to 20 µM; under setting [2], 10 to 20 µM.
As for `O=C(O)c1ccc(/C=C2\SC(=S)N(c3ccc(Cl)c(C(F)(F)F)c3)C2=O)cc1` [Compound 24, (Z)-4-((3-(4-chloro-3-(trifluoromethyl)phenyl)-4-oxo-2-thioxothiazolidin-5-ylidene)methyl)benzoic acid], the IC50 under setting [1] lay within 10 to 20 µM and the IC50 under setting [2] fell in the range of 10 to 20 µM.
In the case of `O=C(O)c1ccc(/C=C2\SC(=S)N(c3ccc(C(F)(F)F)cc3)C2=O)cc1` [Compound 25, (Z)-4-((4-oxo-2-thioxo-3-(4-(trifluoromethyl)phenyl)thiazolidin-5-ylidene)methyl)benzoic acid], the IC50 reads like this: under setting [1], 10 to 20 µM; under setting [2], 10 to 20 µM.
As to `O=C(O)c1ccccc1/C=C1\SC(=S)N(c2cccc(C(F)(F)F)c2)C1=O` [Compound 26, (Z)-2-((4-oxo-2-thioxo-3-(3-(trifluoromethyl)phenyl)thiazolidin-5-ylidene)methyl)benzoic acid], the IC50 fell in the range of 10 to 20 µM under setting [1] and 10 to 20 µM under setting [2].
As for `O=C(O)c1ccccc1/C=C1\SC(=S)N(c2ccccc2C(F)(F)F)C1=O` [Compound 27, (Z)-2-((4-oxo-2-thioxo-3-(2-(trifluoromethyl)phenyl)thiazolidin-5-ylidene)methyl)benzoic acid], the IC50 under setting [1] is 10 to 20 µM and the IC50 under setting [2] lay in the range of 10 to 20 µM.
As for `O=C(O)c1cccc(/C=C2\SC(=S)N(c3ccccc3C(F)(F)F)C2=O)c1` [Compound 28, (Z)-3-((4-oxo-2-thioxo-3-(2-(trifluoromethyl)phenyl)thiazolidin-5-ylidene)methyl)benzoic acid], the IC50 was in the range of 10 to 20 µM under setting [1] and 10 to 20 µM under setting [2].
Take `O=C(O)c1ccccc1/C=C1\SC(=S)N(c2ccc(C(F)(F)F)cc2)C1=O` [Compound 29, (Z)-2-((4-oxo-2-thioxo-3-(4-(trifluoromethyl)phenyl)thiazolidin-5-ylidene)methyl)benzoic acid]: the IC50 was 10 to 20 µM under setting [1] and 10 to 20 µM under setting [2].
Turning to `O=C1/C(=C/c2ccc(O)cc2)SC(=S)N1c1cccc(C(F)(F)F)c1` [Compound 31, (Z)-5-(4-hydroxybenzylidene)-2-thioxo-3-(3-(trifluoromethyl)phenyl) thiazolidin-4-one], the “CFTR inhibitory activity (in words)” value is “low activity”. Also, the IC50 under setting [1] was 20 to 30 µM. The 50% inhibitory concentration (IC50) under setting [2] lay in the range of 20 to 30 µM.
`O=C(O)c1cc(/C=C2\SC(=S)N(c3ccc(C(F)(F)F)cc3)C2=O)ccc1O` [Compound 32, (Z)-2-hydroxy-5-((4-oxo-2-thioxo-3-(4-(trifluoromethyl)phenyl)thiazolidin-5-ylidene)methyl)benzoic acid]: the IC50 reads like this: under setting [1], 20 to 30 µM; under setting [2], 20 to 30 µM.
In the case of `O=C1/C(=C/c2ccncc2)SC(=S)N1c1cccc(C(F)(F)F)c1` [Compound 33, (Z)-5-(pyridin-4-ylmethylene)-2-thioxo-3-(3-(trifluoromethyl)phenyl) thiazolidin-4-one], the “CFTR inhibitory activity (in words)” value was “inactive”. Besides, the IC50 under setting [2] is 20 to 30 µM. For the same compound, the IC50 under setting [3] was in the range of 20 to 30 µM.
For `O=C1/C(=C/c2ccc(O)c(O)c2O)SC(=S)N1c1cccc(C(F)(F)F)c1` [Compound 34, (Z)-2-thioxo-3-(3-(trifluoromethyl)phenyl)-5-(2,3,4-trihydroxybenzylidene) thiazolidin-4-one], the “CFTR inhibitory activity (in words)” value is listed as “low activity”. Under setting [1], the IC50 fell in the range of 20 to 30 µM. Also, the IC50 under setting [2] was 20 to 30 µM.
For `O=C1/C(=C/c2ccc(S(=O)(=O)[O-])cc2)SC(=S)N1c1cccc(C(F)(F)F)c1.[Na+]` [Compound 35, sodium (Z)-4-((4-oxo-2-thioxo-3-(3-(trifluoromethyl)phenyl)thiazolidin-5-ylidene)methyl) benzenesulfonate], the “CFTR inhibitory activity (in words)” value is “inactive”. Moreover, the IC50 under setting [1] is 20 to 30 µM. In addition, the IC50 under setting [2] lay in the range of 20 to 30 µM.
In the case of `O=C(O)COc1cccc(/C=C2\SC(=S)N(c3cccc(C(F)(F)F)c3)C2=O)c1` [Compound 36, (Z)-2-(3-((4-oxo-2-thioxo-3-(3-(trifluoromethyl)phenyl)thiazolidin-5-ylidene)methyl)phenoxy) acetic acid], the IC50 by setting is: under setting [1], 20 to 30 µM; under setting [2], 20 to 30 µM.
On to `O=C1S/C(=C\c2ccc(-c3nn[nH]n3)cc2)C(=O)N1c1cccc(C(F)(F)F)c1` [Compound 48, (Z)-5-(4-(1H-tetrazol-5-yl)benzylidene)-3-(3-(trifluoromethyl)phenyl) thiazolidine-2,4-dione], for which the IC50 is, setting by setting: under setting [4], 10 to 20 µM; under setting [2], 10 to 20 µM.
For the compound `O=C(O)c1ccc(SC2CC(=O)N(c3cccc(C(F)(F)F)c3)C2=O)cc1` (stereo not shown) [Compound 50, 4-(2,5-dioxo-1-(3-(trifluoromethyl)phenyl)pyrrolidin-3-ylthio)benzoic acid], the IC50 is, setting by setting: under setting [4], 5 to 10 µM; under setting [2], 5 to 10 µM; under setting [3], about 7 µM.
Turning to `O=C(O)c1ccc(NC(=S)C2SC(=S)N(c3cccc(C(F)(F)F)c3)C2=O)cc1` (stereo not shown) [Compound 51, 4-(4-oxo-2-thioxo-3-(3-(trifluoromethyl)phenyl)thiazolidine-5-carbothioamido)benzoic acid], the IC50 reads like this: under setting [4], 5 to 10 µM; under setting [2], 5 to 10 µM.
As to `O=C(O)c1ccc(CC2SC(=S)N(c3cccc(C(F)(F)F)c3)C2=O)cc1` (stereo not shown) [Compound 56], the “CFTR inhibitory activity (in words)” value was “inactive”.
